Patent US10363263B2, “Anti-aging compositions and methods for using same” (Prescient Pharma LLC, priority 2015, dated 2019)

What was measured:
[1] = tested on: wild-type N2 Bristol strain of C. elegans; test: C. elegans longevity study (Example 4); format: in vivo; settings: for Restricted mean Days (survival): control 15.53; for longevity effect: monotherapy
Procedure: In this fourth Example, the effect of treatment with lithium and Glycyrrhizic acid separately, and as a fixed combination, was further evaluated on the wild-type N2 Bristol strain of C. elegans. Worm stocks were maintained on nematode growth medium (NGM) dishes containing 10 μg/mL cholesterol (Cat. No. C8667; Sigma-Aldrich, Saint Louis, Mo., USA). Dishes were seeded with OP50 Escherichia coli as a food source. Twelve polystyrene petri dishes (35 mm diameter) were prepared by filling with NGM agar containing […] cholesterol, and 25 μM 5-Fluoro-2′-deoxyuridine to suppress reproduction (FUDR; Cat. No. F0503; Sigma-Aldrich, Saint Louis, Mo., USA). The dishes were seeded with OP50 Escherichia coli as a food source. Duplicate dishes were used for each group. The treatment drug was dissolved in deionized water, and added to the dishes for the groups as explained below: […] Group#5: Glycyrrhizic acid in concentration of 0.25 mM Group#6: untreated (control) NGM-agar treatment plates containing cholesterol (10 μg/mL) and 25 μM 5-Fluoro-2′-deoxyuridine (FUDR; Cat. No. F0503; Sigma-Aldrich, Saint Louis, Mo., USA) to suppress reproduction. […] The survival data for the various groups are also depicted in FIG. 17.

[2] = tested on: normal human colon fibroblast cell line CCD 841 CoN (CRL-1790, ATCC); test: Senescence beta-galactosidase staining of aged normal human colon fibroblasts (Examples 1 and 2); format: cell-based; settings: 48 hours; for effect on beta-galactosidase staining in comparison with non-treated controls: monotherapy, 0.15 μM lithium carbonate or 0.25 mM glycyrrhizic acid; for visible positive beta-galactosidase staining (FIGS. 1-4): visual, light microscope 100×, 0.15 μM lithium carbonate and/or 0.25 mM glycyrrhizic acid
Procedure: Aging-associated beta-galactosidase is widely used as a biomarker of senescence. Here we investigated senescence-associated-beta-galactosidase activity of human colon fibroblast cells by visual assessment.
In this Example, the effect of treatment with lithium and glycyrrhizic acid separately, and as a fixed combination, was evaluated on normal human colon fibroblast cell line CCD 841 CoN (CRL-1790, ATCC).
Group 4 (flasks 10-12, control), the medium was changed to fresh compete EMEM medium without drugs as controls.
FIGS. 1-4 show pictures of the staining results for each of the groups, respectively.
Digital pictures showing the staining results for each of the 12 flasks were then independently examined and scored for percentage of area of green (positive) staining based on pixels, with and without background subtraction.
Higher values reflect more intensive green staining which corresponds to more aged cells.
Group#9 contained complete EMEM medium with glycyrrhizic acid 0.25 mM.
Group#10 contained complete EMEM medium only and was used as a control.
FIGS. 6-15 show pictures of the staining results for each of the groups, respectively.

[3] = lithium carbonate 15 or 0.15 μM as in the label, Ga = glycyrrhizic acid 0.25 mM
[4] = lithium carbonate 15 or 0.15 μM as in the label, Ga = glycyrrhizic acid 0.25 mM, listed as Li0.15 uM
[5] = lithium carbonate 15 or 0.15 μM as in the label, Ga = glycyrrhizic acid 0.25 mM, listed as Li15 uM

SMILES	Age in days at 50% mortality [1, 3] [days]	Age in days at 75% mortality [1, 3] [days]	Age in days at 90% mortality [1, 3] [days]	Age in days at 100% mortality [1, 3] [days]	Restricted mean Days (survival) [1, 4] [days]	Restricted mean Days (survival) [1, 5] [days]	Age in days at 25% mortality [1, 4] [days]	Age in days at 25% mortality [1, 5] [days]	longevity effect [1]	effect on beta-galactosidase staining in comparison with non-treated controls [2]	visible positive beta-galactosidase staining (FIGS. 1-4) [2]
O=C([O-])[O-].[Li+].[Li+] [lithium carbonate]	15	16	18	19	14.88	14.56	13	14	not observed	did not appear to have significant effect	stained positively
CC1(C)[C@@H](O[C@H]2O[C@H](C(=O)O)[C@@H](O)[C@H](O)[C@H]2O[C@@H]2O[C@H](C(=O)O)[C@@H](O)[C@H](O)[C@H]2O)CC[C@]2(C)[C@H]3C(=O)C=C4[C@@H]5C[C@@](C)(C(=O)O)CC[C@]5(C)CC[C@@]4(C)[C@]3(C)CC[C@@H]12 [glycyrrhizic acid, (3β,20β)-20-carboxy-11-oxo-30-norolean-12-en-3-yl 2-O-β-D-glucopyranuronosyl-α-D-glucopyranosiduronic acid]	–	–	–	20	–	–	–	–	not observed	did not appear to have significant effect	stained positively
